Results on four compounds are retold here after patent US9150865B2 (priority 2010, dated 2015).

Entries after “also recorded” stand apart in the source; their conditions may differ.

The test system of one test is S. aureus Newman. Also on record: species or system Staphylococcus aureus. Particulars: in vivo.
The next test relates to rabbit red cells. Format: cell-based.
The subject of another test is S. aureus USA300/LAC. Also on record: species or system Staphylococcus aureus. The conditions noted are these: in vivo.
A further test relates to BALB/c mice. Particulars: mouse, in vivo.
The test system of the next test is C57BL/6J mice. Particulars: mouse, in vivo.
For test [1], the target named is T1, ADAM10 (Homo sapiens, UniProt O14672). The format is cell-based.
T1 sequence (O14672 214-748 limits assumed): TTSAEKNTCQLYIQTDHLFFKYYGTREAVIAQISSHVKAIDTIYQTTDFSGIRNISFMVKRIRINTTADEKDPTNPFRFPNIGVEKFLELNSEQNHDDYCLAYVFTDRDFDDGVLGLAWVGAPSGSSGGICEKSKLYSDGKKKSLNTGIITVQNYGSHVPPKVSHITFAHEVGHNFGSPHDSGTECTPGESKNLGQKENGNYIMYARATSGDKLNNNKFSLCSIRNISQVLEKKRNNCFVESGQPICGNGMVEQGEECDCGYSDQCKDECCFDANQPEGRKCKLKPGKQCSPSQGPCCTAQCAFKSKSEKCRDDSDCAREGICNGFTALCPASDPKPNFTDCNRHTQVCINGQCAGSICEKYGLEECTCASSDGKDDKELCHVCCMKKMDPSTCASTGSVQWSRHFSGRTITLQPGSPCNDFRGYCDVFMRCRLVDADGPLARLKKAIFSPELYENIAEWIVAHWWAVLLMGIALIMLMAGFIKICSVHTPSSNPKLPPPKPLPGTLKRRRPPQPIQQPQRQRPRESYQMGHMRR
The subject of another test is S. aureus strain Newman. Further details: species or system Staphylococcus aureus. The conditions noted are these: in vivo, ip.
Test [2] deals with T1, ADAM10. The format is cell-based. The source holds these as a separate data set.
In a further test the test system is A431 keratinocytes. The format is cell-based.
The subject of test [3] is Human pulmonary artery endothelial cells (HPAECs). Format: cell-based.
The target in test [4] is T1, ADAM10. Format: cell-based. This is another data set of the same source.
The next test relates to A549 cells. The format is cell-based, human.
Test [5] addresses T1, ADAM10. Format: cell-based. This is another data set of the same source.
The target of test [6] is T1, ADAM10. The format is cell-based. The source holds these as a separate data set.
Test [7] has as its system ADAM10. Particulars: cited from earlier work.
Test [8] has as its target T1, ADAM10. The format is cell-based. The source holds these as a separate data set.

Consider `CNC(=O)[C@@H](NC(=O)[C@H](CCCc1ccccc1)[C@H](C)N(O)C=O)C(C)(C)C` [GI254023X], for which, in the test with S. aureus Newman, the “survival of lethal challenge” value is “all experimental animals succumbed to the lethal challenge”. In the test with S. aureus Newman (200 mg/kg), the appearance of illness entry is “less ill in appearance”. For the same compound, in the test on S. aureus Newman (iv, 200 mg/kg), the time-to-death result is “prolongation of time-to-death”. The Hla-induced hemolysis result in the test with rabbit red cells is on record as “blunted hemolysis”. Further, in the test with S. aureus USA300/LAC, the abscess size entry is reported as “reduction in abscess size”, the dermonecrotic skin lesions entry is on record as “did not demonstrate dermonecrotic skin lesions” and the “skin breakdown (dermonecrosis) over the site of infection” value is given as “completely prevented skin breakdown over the site of infection”. Moreover, the “vascular integrity / Evans blue dye extravasation” value in the test with BALB/c mice was “enhanced vascular integrity, manifest by limited dye extravasation”. For the same compound, the “accumulation of cells and proteinaceous edema in the alveolar space (BAL cell count, protein)” value with C57BL/6J mice was “reduced the accumulation of both cells and proteinaceous edema in the alveolar space; also recorded: reduced alveolar exudates; also recorded: prevents Hla-induced lung epithelial barrier disruption in vivo”. The “E-cadherin cleavage in response to Hla treatment in mice” value in the test on C57BL/6J mice (ip) is recorded as “prevented E-cadherin cleavage in response to Hla treatment”. For the same compound, the “PLY-induced E-cadherin cleavage” value at ADAM10 [1] was “prevented PLY-induced E-cadherin cleavage”. In addition, the “protection against lethal S. aureus pneumonia (mortality curves)” value in the test on S. aureus strain Newman is “protected from rapidly lethal S. aureus pneumonia, displaying an increase in time to death and survival among some animals; also recorded: protected against lethal pneumonia”. For the same compound, the “Hla-induced VE-cadherin cleavage” value at ADAM10 [2] is “prevented VE-cadherin cleavage”. Further, the “epithelial barrier function upon toxin treatment (ECIS)” value in the test with A431 keratinocytes was “preservation of full-length E-cadherin expression and epithelial barrier function”. Further, in [3], the “Hla-mediated barrier disruption (ECIS)” value is recorded as “complete protection of HPAECs from Hla-mediated barrier disruption”. In addition, the “full-length E-cadherin expression upon toxin treatment” value at ADAM10 [4] is “preservation of full-length E-cadherin expression”. Also, the “toxin binding and oligomerization on the surface of A549 cells” value in the test on A549 cells was “markedly impaired toxin binding and subsequent oligomerization; also recorded: impaired toxin binding and oligomerization on A549 cells”. Also, on ADAM10 [5], the “Hla-induced E-cadherin cleavage” value is on record as “nearly abrogated Hla-induced E-cadherin cleavage”. The “Hla-induced loss of E-cadherin expression and disruption of cell junctions” value at ADAM10 [6] is “could be prevented; also recorded: is inhibited”.
In the case of `C[C@H](CCC(=O)O)C[C@H](C)C[C@H](C)C(=O)/C=C(\O)[C@H](C)C[C@H](C)C/C=C/[C@@H](C)[C@@H](O)[C@@H](C)[C@@H](O)C[C@@H]1CC[C@@](C)([C@H]2CC[C@@](C)([C@@H](C)O)O2)O1` [Ionomycin], in the test on ADAM10 [7], the “induction of ADAM10 metalloprotease activity” value is on record as “potently induces the metalloprotease activity of ADAM10”. In addition, the “E-cadherin cleavage induced by agent alone” value on ADAM10 [5] is on record as “stimulating E-cadherin cleavage; also recorded: E-cadherin CTFs were generated; also recorded: enhancing cleavage”.
As to Methyl-β-cyclodextrin, the Hla-induced metalloprotease activation entry on ADAM10 [8] was “abrogated metalloprotease activation”. Also, the “Hla-induced E-cadherin cleavage” value on ADAM10 [5] was “abrogated metalloprotease activation and E-cadherin cleavage”.
As to “N—(R)-[2-hydroxyaminocarbonyl)methyl]-4-methylpentanoyl-L-napthylalanyl-L-alanine, 2-aminoethyl amide [TAPI-1]”, the “Hla-induced VE-cadherin cleavage” value on ADAM10 [2] is on record as “prevented VE-cadherin cleavage”. In test [3], the “barrier function after Hla (ECIS)” value is “maintenance of barrier function; also recorded: did not result in loss of barrier function”. At ADAM10 [5], the “Hla-induced E-cadherin cleavage (Western blot)” value is reported as “impaired Hla-induced E-cadherin cleavage” and the “surface expression of E-cadherin after Hla (immunofluorescence)” value is listed as “preserved surface expression of E-cadherin”.
